{
  "source": "patent US20190211102A1",
  "about": "“METHODS AND COMBINATION THERAPY TO TREAT CANCER” (Array BioPharma Inc., priority 2018, published 2019)",
  "key": {"[1]": {"assay": "plasma pharmacokinetics of ARRY-382, Phase 1b Part A (with pembrolizumab)", "type": "in vivo, human"}, "CSF-1": {"system": "CSF-1", "assay": "pharmacodynamic analysis of circulating biomarkers: CSF-1 levels, Part A", "type": "in vivo, human"}, "[2]": {"settings": "Bendell et al. 2013, cited from earlier work"}, "advanced solid tumors": {"system": "advanced solid tumors", "assay": "preliminary antitumor activity by RECIST version 1.1 and irRC, Part A", "type": "in vivo, human", "settings": "ARRY-382 300 mg cohort, with pembrolizumab", "excerpt": "Key eligibility criteria for Part A was adult patients with confirmed diagnosis of: bladder cancer, head and neck squamous cell cancer, ovarian cancer, triple-negative breast cancer, gastric cancer, metastatic colorectal cancer, or pancreatic ductal adenocarcinoma, refractory to standard of car, with no standard therapy available or for which the patient refused standard therapy; advanced, unresectable, or metastatic melanoma with or without prior treatment; or advanced/metastatic PD-L1-positive non-small cell lung cancer (NSCLC) meeting any of the following criteria: (1) tumors without EGFR or ALK genomic aberrations in patients who had received no prior systemic chemotherapy or had disease progression on or after platinum-containing chemotherapy, or (2) tumors with EGFR or ALK genomic aberrations in patients with disease progression on a US Food and Drug Administration-approved therapy for EGFR or ALK genomic tumor aberrations. Patients who received prior immune checkpoint inhibitor treatment were excluded from the study.\nDLTs were determined using standard definitions."}, "[3]": {"assay": "Phase 1b dose escalation (Part A): DLTs, adverse events, RP2D of ARRY-382 with pembrolizumab", "method": "DLTs were determined using standard definitions. Adverse events (AEs) and serious AEs were collected to analyze the safety and tolerability of treatment. […] Blood samples for pharmacodynamics analysis of circulating biomarkers, including CSF-1, were collected on days 1, 8, and 15 of cycle 1 and on day 1 of all subsequent cycles."}, "[4]": {"settings": "Part A, ARRY-382 + pembrolizumab"}},
  "note": "“Also recorded” adds a separate entry of the source.",
  "data": [
    {"smiles": "Cc1cccc(Cn2nc(C3CC3)c3c(NC(=O)c4cnc5cc(OCCN6CCN(C)CC6)ccn45)cccc32)n1", "note": "[ARRY-382, N-(3-cyclopropyl-1-((6-methylpyridin-2-yl)methyl)-1H-indazol-4-yl)-7-(2-(4-methylpiperazin-1-yl)ethoxy)imidazo[1,2-a]pyridine-3-carboxamide]", "values": [
      {"measurement": "exposure in the 300 mg versus 400 mg dose cohorts", "setting": "[1]; 300 mg vs 400 mg QD", "result": "similar"},
      {"measurement": "dose proportionality of ARRY-382 exposure", "setting": "[1]; 200, 300, 400 mg QD with pembrolizumab", "result": "generally dose-proportional"},
      {"measurement": "PK interactions between ARRY-382 and pembrolizumab", "setting": "[1]; patients, Part A", "result": "no evidence of any PK interactions"},
      {"measurement": "average maximum increase in CSF-1 levels from baseline, 300 mg versus 400 mg cohorts", "setting": "CSF-1; 300 mg vs 400 mg cohorts", "result": "similar"},
      {"measurement": "average maximum increase in CSF-1 levels from baseline", "setting": "CSF-1; ARRY-382 300 mg QD with pembrolizumab", "result": 5.4, "unit": "fold"},
      {"measurement": "relation of increases from baseline in CSF-1 levels to ARRY-382 exposure", "setting": "CSF-1; Part A", "result": "correlated with increasing ARRY-382 exposure"},
      {"measurement": "doses with biological activity", "setting": "[2]; QD", "result": "greater than or equal to 200 mg"},
      {"measurement": "maximum tolerated dose (MTD)", "setting": "[2]; once daily (QD)", "result": 400, "unit": "mg"},
      {"measurement": "patients with stable disease per irRC", "setting": "advanced solid tumors", "result": 3, "unit": "patients"},
      {"measurement": "stable disease per RECIST version 1.1, share of patients", "setting": "advanced solid tumors", "result": 33, "unit": "%"},
      {"measurement": "stable disease per irRC, share of patients", "setting": "advanced solid tumors", "result": 50, "unit": "%"},
      {"measurement": "dose-limiting toxicities in the 200 mg cohort", "setting": "[3]; ARRY-382 200 mg QD + pembrolizumab, six patients", "result": "No DTLs occurred; also recorded: No DLTs occurred"},
      {"measurement": "patients who discontinued because of an AE of pneumonitis", "setting": "[3]; ARRY-382 200 mg cohort, onset in cycle 4", "result": "One"},
      {"measurement": "patients with dose reductions in the 300 mg cohort", "setting": "[3]; ARRY-382 300 mg cohort", "result": 3, "unit": "patients"},
      {"measurement": "patients who experienced a DLT in the 400 mg cohort", "setting": "[3]; ARRY-382 400 mg QD + pembrolizumab", "result": "2 of 7 and Two of seven"},
      {"measurement": "course of AST and CK elevations after interruption of ARRY-382", "setting": "[3]; Part A", "result": "resolved in all patients; also recorded: reversible"},
      {"measurement": "grade 4 events of increased blood CK", "setting": "[3]; Part A", "result": "one"},
      {"measurement": "patients with AST elevation who required dose reduction", "setting": "[3]; Part A", "result": 2, "unit": "patients"},
      {"measurement": "patients with CK elevation who required dose reduction", "setting": "[3]; Part A", "result": 3, "unit": "patients"},
      {"measurement": "patients with immune-related adverse events (investigator-classified)", "setting": "[3]; Part A", "result": 5, "unit": "patients"},
      {"measurement": "most common adverse events of any grade", "setting": "[3]; Part A, 19 patients, ARRY-382 + pembrolizumab", "result": "increased laboratory values (AST, CK, ALT, alkaline phosphatase (ALP), lipase, amylase), fatigue, pyrexia, and nausea"},
      {"measurement": "most common grade 3/4 events (>10%)", "setting": "[3]; [4]", "result": "increased AST, increased CK, rash, lipase increased, increased ALP, increased ALT, and anemia"},
      {"measurement": "patients with grade 3 AST elevation", "setting": "[3]; [4]", "result": 5, "unit": "patients"},
      {"measurement": "on-study deaths (on treatment or within 30 days of last dose)", "setting": "[3]; Part A, cause disease progression in all cases", "result": 3},
      {"measurement": "recommended phase 2 dose (RP2D)", "setting": "[3]; QD continuously, in combination with pembrolizumab 2 mg/kg IV every 3 weeks", "result": 300, "unit": "mg"},
      {"measurement": "immune-related adverse events, manageability", "setting": "[3]; regardless of relationship to study drug", "result": "observed and were manageable"}
    ]}
  ]
}
